Measurements reported in ChEMBL document CHEMBL1139332, “Selective activity against Mycobacteriumtuberculosis of new quinoxaline 1,4-di-N-oxides” (Bioorg Med Chem, 2009).
In brackets after ≈: the same amount, converted by molar mass.

Assays:
[1] = tested on: Mycobacterium tuberculosis; experiment: Antimicrobial activity against Mycobacterium tuberculosis H37Rv by microplate alamar blue assay; type: functional
[2] = tested on: Vero; experiment: Cytotoxicity against african green monkey Vero cells after 72 hrs by MTT assay; type: cell-based, Chlorocebus sabaeus
[3] = tested on: Mycobacterium tuberculosis; experiment: Antimicrobial activity against Mycobacterium tuberculosis H37Rv at 6.25 ug/ml by microplate alamar blue assay; type: functional
[4] = Selectivity index, ratio of IC50 for african green monkey Vero cells to MIC for Mycobacterium tuberculosis H37Rv; type: functional
[5] = Chlorocebus sabaeus, Vero, 72 h, read-out: IC50

SMILES	MIC [1]	IC50 [2, 5]	inhibition at 6.25 µg/mL [3]	Ratio [4]	IC50 ([2]; vero)
COc1ccc2c(c1)[n+]([O-])c(C#N)c(-c1ccc(F)cc1)[n+]2[O-]	< 0.2 µg/mL	95.1 µg/mL (≈ 306 µM)	90%	>475.55	
COc1ccc(-c2c(C#N)[n+]([O-])c3ccccc3[n+]2[O-])cc1	< 0.2 µg/mL		90%		
COC(=O)c1ccc(-c2c(C#N)[n+]([O-])c3cc(OC)ccc3[n+]2[O-])cc1	3.13 µg/mL (≈ 8.91 µM)	3.9 µg/mL (≈ 11.1 µM)	90%	1.2	
Cc1cc2c(cc1C)[n+]([O-])c(-c1ccc(F)cc1)c(C#N)[n+]2[O-]	1.69 µg/mL (≈ 5.46 µM)	100 µg/mL (≈ 323 µM)	90%	>59.07	
CCOC(=O)c1c(-c2ccccc2)[n+]([O-])c2ccc(C)cc2[n+]1[O-]	1.56 µg/mL (≈ 4.81 µM)	18.6 µg/mL (≈ 57.4 µM)	90%	11.93	
CCOC(=O)c1c(-c2ccc(F)cc2)[n+]([O-])c2ccccc2[n+]1[O-]	0.39 µg/mL (≈ 1.19 µM)	8.9 µg/mL (≈ 27.1 µM)	90%	22.82	
COc1ccc(-c2c(C#N)[n+]([O-])c3cc(C)c(C)cc3[n+]2[O-])cc1	< 0.2 µg/mL		90%		
N#Cc1c(-c2ccc(Cl)cc2)[n+]([O-])c2ccccc2[n+]1[O-]	0.39 µg/mL (≈ 1.31 µM)	0.36 µg/mL (≈ 1.21 µM)	90%	0.92	
N#Cc1c(-c2ccc(F)cc2)[n+]([O-])c2ccc(F)cc2[n+]1[O-]	< 0.2 µg/mL	24.9 µg/mL (≈ 83.3 µM)	90%	>124.67	
N#Cc1c(-c2ccc(F)cc2)[n+]([O-])c2ccccc2[n+]1[O-]	< 0.2 µg/mL	3.83 µg/mL (≈ 13.6 µM)	90%	>19.16	
COC(=O)c1ccc(-c2c(C#N)[n+]([O-])c3cc(C(F)(F)F)ccc3[n+]2[O-])cc1	< 0.2 µg/mL	1.93 µg/mL (≈ 4.96 µM)	90%	>9.64	
CCOC(=O)c1c(-c2ccc(Br)cc2)[n+]([O-])c2ccccc2[n+]1[O-]	0.39 µg/mL (≈ 1 µM)	6.12 µg/mL (≈ 15.7 µM)	90%	15.69	
CC(=O)c1c(C)[n+]([O-])c2ccc(Cl)cc2[n+]1[O-]	0.78 µg/mL (≈ 3.09 µM)			20	
N#Cc1c(-c2ccc(OC(F)(F)F)cc2)[n+]([O-])c2ccccc2[n+]1[O-]	< 0.2 µg/mL		90%		
COc1ccc(-c2c(C#N)[n+]([O-])c3cc(C(F)(F)F)ccc3[n+]2[O-])cc1	< 0.2 µg/mL	0.9 µg/mL (≈ 2.49 µM)	90%	>4.53	
CCOC(=O)c1c(-c2ccc([N+](=O)[O-])cc2)[n+]([O-])c2ccccc2[n+]1[O-]	0.78 µg/mL (≈ 2.2 µM)	2.26 µg/mL (≈ 6.36 µM)	90%	2.9	
Cc1ccc(-c2c(C#N)[n+]([O-])c3cc(Cl)ccc3[n+]2[O-])cc1	6.25 µg/mL (≈ 20 µM)	0.63 µg/mL (≈ 2.02 µM)	90%	0.1	
CCOC(=O)c1c(-c2ccccc2)[n+]([O-])c2cc(C)c(C)cc2[n+]1[O-]	6.25 µg/mL (≈ 18.5 µM)	> 10 µg/mL	90%	>1.6	
CCOC(=O)c1c(-c2ccc(C)cc2)[n+]([O-])c2ccccc2[n+]1[O-]	0.78 µg/mL (≈ 2.4 µM)	11.3 µg/mL (≈ 34.8 µM)	90%	14.47	
Cc1ccc(-c2c(C#N)[n+]([O-])c3cc(F)ccc3[n+]2[O-])cc1	< 0.2 µg/mL	14.6 µg/mL (≈ 49.6 µM)	90%	>73.19	

SMILES	MIC [1]	IC50 [2, 5]	inhibition at 6.25 µg/mL [3]	Ratio [4]	IC50 ([2]; vero)
N#Cc1c(-c2ccc(OC(F)(F)F)cc2)[n+]([O-])c2ccc(C(F)(F)F)cc2[n+]1[O-]	< 0.2 µg/mL		90%		
COc1ccc2c(c1)[n+]([O-])c(C#N)c(-c1ccc(C)cc1)[n+]2[O-]	1.56 µg/mL (≈ 5.08 µM)	3.8 µg/mL (≈ 12.4 µM)	90%	2.4	
CCOC(=O)c1c(-c2ccccc2)[n+]([O-])c2ccc(OC)cc2[n+]1[O-]	6.25 µg/mL (≈ 18.4 µM)	17.8 µg/mL (≈ 52.2 µM)	90%	2.84	
N#Cc1c(-c2ccc(F)cc2)[n+]([O-])c2ccc(Cl)cc2[n+]1[O-]	< 0.2 µg/mL	51.7 µg/mL (≈ 164 µM)	90%	>258.67	
COC(=O)c1ccc(-c2c(C#N)[n+]([O-])c3cc(Cl)ccc3[n+]2[O-])cc1	3.13 µg/mL (≈ 8.8 µM)	20.9 µg/mL (≈ 58.7 µM)	90%	6.7	
Cc1ccc2c(c1)[n+]([O-])c(C#N)c(-c1ccc(F)cc1)[n+]2[O-]	< 0.2 µg/mL	> 100 µg/mL	90%	>500	
COC(=O)c1ccc(-c2c(C#N)[n+]([O-])c3cc(C)c(C)cc3[n+]2[O-])cc1	6.25 µg/mL (≈ 17.9 µM)	9.66 µg/mL (≈ 27.7 µM)	90%	1.5	
Cc1cc2c(cc1C)[n+]([O-])c(-c1ccc(OC(F)(F)F)cc1)c(C#N)[n+]2[O-]	0.42 µg/mL (≈ 1.12 µM)		90%		
COc1ccc(-c2c(C#N)[n+]([O-])c3cc(C)ccc3[n+]2[O-])cc1	< 0.2 µg/mL		90%		
COc1ccc(-c2c(C#N)[n+]([O-])c3cc(Cl)c(Cl)cc3[n+]2[O-])cc1	< 0.2 µg/mL		90%		
Cc1ccc2c(c1)[n+]([O-])c(C#N)c(-c1ccc(OC(F)(F)F)cc1)[n+]2[O-]	< 0.2 µg/mL		90%		
CCOC(=O)c1c(-c2ccccc2)[n+]([O-])c2ccc(Cl)cc2[n+]1[O-]	1.56 µg/mL (≈ 4.52 µM)	3.33 µg/mL (≈ 9.66 µM)	90%	2.13	
N#Cc1c(-c2ccc(Cl)cc2)[n+]([O-])c2ccc(Cl)cc2[n+]1[O-]	0.39 µg/mL (≈ 1.17 µM)		90%		ND(Insoluble)
N#Cc1c(-c2ccccc2)[n+]([O-])c2ccccc2[n+]1[O-]	0.2 µg/mL (≈ 0.76 µM)	1.9 µg/mL (≈ 7.22 µM)	90%	9.5	
CCOC(=O)c1c(-c2ccc(OC)cc2)[n+]([O-])c2ccccc2[n+]1[O-]	1.56 µg/mL (≈ 4.58 µM)	7.65 µg/mL (≈ 22.5 µM)	90%	4.9	
N#Cc1c(-c2ccc(OC(F)(F)F)cc2)[n+]([O-])c2ccc(F)cc2[n+]1[O-]	< 0.2 µg/mL		90%		
COC(=O)c1ccc(-c2c(C#N)[n+]([O-])c3cc(F)ccc3[n+]2[O-])cc1	< 0.2 µg/mL	57.5 µg/mL (≈ 169 µM)	90%	>258.67	
N#Cc1c(-c2ccc(F)cc2)[n+]([O-])c2cc(Cl)c(Cl)cc2[n+]1[O-]	< 0.2 µg/mL	7.41 µg/mL (≈ 21.2 µM)	90%	>37.06	
COc1ccc(-c2c(C#N)[n+]([O-])c3cc(Cl)ccc3[n+]2[O-])cc1	< 0.2 µg/mL		90%		
Cc1ccc(-c2c(C#N)[n+]([O-])c3cc(Cl)c(Cl)cc3[n+]2[O-])cc1	3.13 µg/mL (≈ 9.04 µM)	0.72 µg/mL (≈ 2.08 µM)	90%	0.23	

SMILES	MIC [1]	IC50 [2, 5]	inhibition at 6.25 µg/mL [3]	Ratio [4]	IC50 ([2]; vero)
COC(=O)c1ccc(-c2c(C#N)[n+]([O-])c3cc(Cl)c(Cl)cc3[n+]2[O-])cc1	> 6.25 µg/mL				
N#Cc1c(-c2ccccc2)[n+]([O-])c2ccc(Cl)cc2[n+]1[O-]	0.39 µg/mL (≈ 1.31 µM)	0.36 µg/mL (≈ 1.21 µM)	90%	0.92	
COc1ccc2c(c1)[n+]([O-])c(C#N)c(-c1ccc(OC(F)(F)F)cc1)[n+]2[O-]	< 0.2 µg/mL		90%		
CCOC(=O)c1c(-c2ccccc2)[n+]([O-])c2cc(F)c(F)cc2[n+]1[O-]	1.56 µg/mL (≈ 4.5 µM)	0.38 µg/mL (≈ 1.1 µM)	90%	0.24	
Cc1ccc(-c2c(C#N)[n+]([O-])c3cc(C)ccc3[n+]2[O-])cc1	0.78 µg/mL (≈ 2.68 µM)		90%		ND(Insoluble)
Cc1cc2c(cc1C)[n+]([O-])c(N1CCN(c3ccc([N+](=O)[O-])cc3)CC1)c(C#N)[n+]2[O-]	< 0.2 µg/mL			>125	
N#Cc1c(-c2ccccc2)[n+]([O-])c2cc(Cl)c(Cl)cc2[n+]1[O-]	0.2 µg/mL (≈ 0.602 µM)		90%		ND(Insoluble)
N#Cc1c(-c2ccc(OC(F)(F)F)cc2)[n+]([O-])c2ccc(Cl)cc2[n+]1[O-]	< 0.2 µg/mL		90%		
Cc1ccc(-c2c(C#N)[n+]([O-])c3ccccc3[n+]2[O-])cc1	0.39 µg/mL (≈ 1.41 µM)	0.68 µg/mL (≈ 2.45 µM)	90%	1.7	
Cc1ccc(-c2c(C#N)[n+]([O-])c3cc(C(F)(F)F)ccc3[n+]2[O-])cc1	< 0.2 µg/mL	0.28 µg/mL (≈ 0.811 µM)	90%	>1.42	
COc1ccc2c(c1)[n+]([O-])c(C#N)c(-c1ccccc1)[n+]2[O-]	3.13 µg/mL (≈ 10.7 µM)		90%		ND(Insoluble)
N#Cc1c(-c2ccccc2)[n+]([O-])c2ccc(F)cc2[n+]1[O-]	< 0.2 µg/mL	17.6 µg/mL (≈ 62.6 µM)	90%	>88.03	
Cc1c(C(=O)OCc2ccccc2)[n+]([O-])c2cc(Cl)ccc2[n+]1[O-]	0.1 µg/mL (≈ 0.29 µM)			470	
CCOC(=O)c1c(-c2ccccc2)[n+]([O-])c2cc(Cl)c(Cl)cc2[n+]1[O-]	< 0.2 µg/mL		90%		
N#Cc1c(-c2ccc(OC(F)(F)F)cc2)[n+]([O-])c2cc(Cl)c(Cl)cc2[n+]1[O-]	< 0.2 µg/mL		90%		
CCOC(=O)c1c(C)[n+]([O-])c2ccc(Cl)cc2[n+]1[O-]	0.2 µg/mL (≈ 0.708 µM)			>50	
N#Cc1c(-c2ccc(Cl)cc2)[n+]([O-])c2cc(Cl)c(Cl)cc2[n+]1[O-]	< 0.2 µg/mL		90%		ND(Insoluble)
COc1ccc(-c2c(C#N)[n+]([O-])c3cc(OC)ccc3[n+]2[O-])cc1	< 0.2 µg/mL		90%		
